Data reported in US7892767B2, “Phosphospecific chemokine receptor antibodies” (Washington University in St. Louis, priority 2005, dated 2011).

Tests used:
Nf1−/− astrocytes = test: Cell cycle analysis by flow cytometry, Nf1−/− astrocytes; format: cell-based, mouse; conditions: CXCL12 0.1 μg/ml
Procedure: Cell Cycle Analysis. Ethanol fixed cells were washed in PBS and resuspended in PI staining solution containing 0.1% Triton-X-100, 0.2 mg/ml RNase A, and 20 ug/ml Propidium Iodide in PBS. The cells were incubated for 15 minutes at 37° C., in the dark. Flow Cytometry was performed on a FACSCalibur system (Becton Dickinson, San Jose, Calif.) Data were analyzed using CellQuest software (Becton Dickinson, San Jose, Calif.). Aggregates and debris were excluded from the analysis.
The basis for the in vitro growth effects of CXCL12 was further evaluated by cell cycle analysis of asynchronously growing cultures of Nf1+/+ and Nf1−/− astrocytes in the presence and absence of CXCL12. In agreement with measurements of cell number, 15% more Nf1−/− astrocytes were in the S+G2M fraction of the cell cycle compared to Nf1+/+ astrocytes (P<0.005, data not shown). This decrease in Nf1+/+ cell number in response to CXCL12 was the result of both a 6% decrease in proliferation (S+G2-M) and a 38+/−8% increase in apoptosis (sub-G0). The increase in Nf1−/− cell number was the result of a 27+/−12% decline in apoptosis alone (FIG. 9C).

CXCR4 = target: T1, CXCR4 (Mus musculus, UniProt P70658); test: CXCL12-induced CXCR4 phosphorylation (pCXCR4 western blot), Nf1−/− astrocytes; format: cell-based; conditions: CXCL12 0.1 μg/ml, at 5 minutes
T1 construct: endogenous in cells; host or cells: primary mouse astrocytes (Nf1 flox/flox, infected with Ad-LacZ or Ad-Cre)
T1 sequence (P70658 whole entry): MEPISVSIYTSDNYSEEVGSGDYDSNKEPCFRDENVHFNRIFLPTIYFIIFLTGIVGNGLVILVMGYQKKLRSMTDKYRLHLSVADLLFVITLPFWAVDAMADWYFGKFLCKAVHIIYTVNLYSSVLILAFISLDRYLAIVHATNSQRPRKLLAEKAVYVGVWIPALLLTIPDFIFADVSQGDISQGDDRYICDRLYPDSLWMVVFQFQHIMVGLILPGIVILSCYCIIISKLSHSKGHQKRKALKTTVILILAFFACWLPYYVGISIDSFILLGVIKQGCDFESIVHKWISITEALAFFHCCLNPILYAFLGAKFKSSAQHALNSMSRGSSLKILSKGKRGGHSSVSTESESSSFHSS
Procedure: Western Blot Analysis. Whole-cell extracts were obtained by lysing cells with lysis buffer (20 mM Tris pH 7.4, 137 mM NaCl, 10% Glycerol and 1% Triton-X-100) supplemented with phosphatase inhibitor cocktail set II (Calbiochem, La Jolla, Calif.), PMSF (1 mM), leupeptin, (0.005 mg/ml) and aprotinin (0.005 mg/ml). The proteins were resolved with 10% Bis-Tris gels (Invitrogen) and transferred onto the nitrocellulose membrane Hybond ECL (Amersham, Piscataway, N.J.) according to standard protocols. Membranes were incubated with polyclonal antibodies CXCR4 (1:500), pErk½ (1:1200), pan Erk½ (1:150), pAkt (1:500), pan Akt (1:1000), pGRK2 (1:250), and pCXCR4 (1:200) overnight at 4° C. This was followed by incubation with horseradish peroxidase-conjugated secondary antibody (1:15,000; Bio-Rad). Peroxide activity was detected using the enhanced chemiluminescence Supersignal West Dura system (Pierce, Rockford, Ill.) Mouse anti-actin antibody was used as a loading control. Quantitation of western blots was performed by densitometry using Image J software from the NIH.
Among the primary mechanisms for controlling GPCR effects on cAMP production is receptor desensitization (140). This process is initiated when ligand occupied GPCR (e.g., CXCR4) is phosphorylated by G protein receptor kinase (GRK). […]

[1] = system: Daoy medulloblastoma cells; test: Intracellular cAMP by ELISA, Daoy medulloblastoma cells; format: cell-based, human; conditions: 1 μg/ml CXCL12
Procedure: (§1) Growth factor and drug treatment. Following serum-starvation for 24 hours, astrocytes, granule cells, U87 cells and Daoy cells, were treated with 1 μg/ml CXCL12 (PeproTech), […] AMD3465 (kind gift from Simon Fricker, AnorMED, Langley, BC, Canada) (200 μM Rolipram (Sigma), or 10 μM Forskolin (Sigma) as indicated.
cAMP measurement in cell culture. cAMP concentration was measured using a Correlated-EIA™. Enzyme Immunoassay Kit (Assay Designs Inc. MI) according to the manufacturer's instructions. Briefly, U87 or Daoy cells were serum-starved for 24 hours, and treated with CXCL12 (1 μg/ml), Rolipram (200 μM), or forskolin (10 μM). Cells were lysed in 0.1M HCL and particulate matter was removed by centrifugation at >600×g for 10 min. The supernatants were dried down and resuspended in assay buffer.
(§2) Determination of cAMP concentration. Competitive immunoassay for cAMP concentration was performed exactly as directed by the manufacturer. Absorbance at 405 nm was measured and cAMP concentrations were determined by calculation based on a standard curve. Protein concentrations were measured by colormetric assay (Bio-Rad, Hercules, Calif.) according to the manufacturer's directions. cAMP values were normalized to protein for each sample individually.

[2] = system: cerebellar granule precursor cells (GPCs); test: Intracellular cAMP by ELISA, primary cerebellar granule precursor cells; format: cell-based, mouse; conditions: 1 μg/ml CXCL12
Procedure: (§3) Primary granule neuron cultures. Primary cultures of purified GPCs were prepared from 6 day-old BALB/C mice as described (58). Cerebella were dissected and meninges were removed. After incubation with 0.1% trypsin (Sigma) in HBSS with 125 units/ml Dnase (Sigma), 0.5 mM EDTA for 20 minutes at 37° C., cells were pelleted and washed three times with HBSS. The final cell suspension was passed through a […] nylon mesh cell strainer (Falcon, Franklin Lakes, Mich.). Cells were diluted to 2×10^6 cells/ml in DMEM/F12 (Gibco BRL, Gaithersburg, Md.) supplemented with N2 (Gibco BRL), 20 mM KCl, and 36 mM glucose.
as §1, §2

GPCs = test: Cell number by trypan blue exclusion, primary GPCs; format: cell-based, mouse; conditions: CXCL12 1 μg/ml, 24 hours
Procedure: as §3, §1

decrease in pCXCR4 (CXCR4): 0.56+/−0.14 fold
Substance: CXCL12: chemokine ligand of CXCR4 (Peprotech)
decline in apoptosis (sub-G0) (Nf1−/− astrocytes): 27+/−12%
cyclic AMP levels after CXCL12 [1]: rapidly declined
reduction in cAMP as compared to GPCs (area under the curve) [1]: 70%
change in cAMP levels [2]: little to no change
effect on cell number (GPCs): no effect
